Assay results taken from patent US20240252456A1, “ORAL COMPOSITION, SKIN COSMETIC AND HAIR COSMETIC” (MARUZEN PHARMACEUTICALS CO., LTD., priority 2021, published 2024).

Legend:
SPT mRNA = test: Serine palmitoyltransferase (SPT) mRNA expression promotive action test; assay type: cell-based, human; conditions: NHEK, 24 hours, corrected with GAPDH
Experimental: (§1) Normal human neonatal epidermal keratinocytes (NHEK) were precultured using normal human epidermal keratinocyte growth medium (KGM), and the cells were collected by a trypsin treatment. The collected cells were diluted with KGM to a cell density of 15×10^4 cells/mL, then seeded with 2 mL portions in a 6-well plate (30×10^4 cells/well), and cultured overnight under conditions of 37° C. and 5% CO2. After culturing, the medium was replaced with normal human epidermal keratinocyte basal medium (KBM, the above KGM without addition of growth additives (hEGF, BPE, insulin, antibacterial agents, hydrocortisone)), and culturing was further performed for 24 hours.
(§2) After culturing for 24 hours, the medium was removed, and 2 mL of the test sample (Sample 1, see Table 16 below for final concentration) dissolved in KBM was added to each well, and culturing was performed under conditions of 37° C. and 5% CO2 for 24 hours. As a control, culturing was performed in the same manner using KBM to which no sample was added. After culturing, the medium was removed, total RNA was extracted using ISOGEN II (available from NIPPON GENE CO., LTD.), each RNA amount was measured using a spectrophotometer, and the total RNA was prepared so as to be 150 ng/μL.
For SPT and GAPDH as an internal standard, the expression levels of mRNA were measured using the above total RNA as a template. […]

AGEs = test: Advanced glycation end product (AGEs) decomposition promotive action test; conditions: preformed AGEs, 37° C., 20 days
Experimental: In a 96-well type I collagen-coated plate (available from AGC Inc.), 100 μL of 0.2M D(−)-ribose solution prepared with PBS(−) buffer solution was added and statically placed at 37° C. for 2 weeks to form AGEs. In addition, the plate in which only the PBS(−) buffer solution was added was statically placed as a negative control in the same manner. After 2 weeks, 100 μL of the test sample (Sample 1, see Table 23 below for final concentration) prepared with PBS (−) buffer solution was added to each of the plates and statically further placed at 37° C. for 20 days. As a positive control, only PBS(−) buffer solution was statically placed in the same manner as substitute for the test sample, and as a negative control, only PBS(−) buffer solution was continued to be statically placed in the same manner. After 20 days, the amount of AGEs was measured by the ELISA method using an anti-AGEs antibody (available from TPANS GENIC INC.), and the AGEs decomposition promotive action was evaluated. From the obtained results, the AGEs decomposition promotion rate (%) was calculated using the following equation.
Terms in the equation represent the following respective ones. • A: Absorbance at wavelength 405 nm in negative control • B: Absorbance at wavelength 405 nm in positive control • C: Absorbance at wavelength 405 nm with test sample addition

AQP3 mRNA = test: Aquaporin 3 (AQP3) mRNA expression promotive action test; assay type: cell-based, human; conditions: 100 μmol/L; NHEK, 24 hours, corrected with GAPDH
Experimental: as §1
as §2, with “17” for “16”
For AQP3 and GAPDH as an internal standard, the expression levels of mRNA were measured using the above total RNA as a template. […]

In the case of O=C(O)CCc1ccc(O)c(O)c1 [Sample 1, 3,4-Dihydroxyhydrocinnamic acid], the “SPT mRNA expression promotion rate” value (SPT mRNA; 25 μmol/L) is reported as 114.6%, the “SPT mRNA expression promotion rate” value (SPT mRNA; 100 μmol/L) is reported as 149.9% and the “AGEs decomposition promotion rate” value (AGEs; 125 μmol/L) is reported as 37.7%. The “AGEs decomposition promotion rate” value (AGEs; 500 μmol/L) was 39.9%, the “AGEs decomposition promotion rate” value (AGEs; 2000 μmol/L) was 34.1% and the “AQP3 mRNA expression promotion rate” value (AQP3 mRNA) was 207.8%.
